We go through four compounds from publication PMC3914206.

Common to all, as to assay type: binding
Conditions in all cases: Compound Concentration 10 µM

The target of assay [1] is T1, panel of 442 kinases (Homo sapiens, UniProt P00519, Y253F).
T1 construct: purchased KINOMEscan
An excerpt: (§1) We assessed the selectivity of members of this scaffold using the KINOMEscan methodology across a near comprehensive panel of 442 kinases [[18,27]].

For assay [2], the target named is T2, panel of 442 kinases (Homo sapiens, UniProt P24723).
T2 construct: purchased KINOMEscan
Text: as §1

In assay [3] the target is T3, panel of 442 kinases (Homo sapiens, UniProt P28482).
T3 construct: purchased KINOMEscan
Text: as §1

Assay [4] addresses T4, panel of 442 kinases (Homo sapiens, UniProt O75914).
T4 construct: purchased KINOMEscan
Text: as §1

T2 sequence (P24723 whole entry): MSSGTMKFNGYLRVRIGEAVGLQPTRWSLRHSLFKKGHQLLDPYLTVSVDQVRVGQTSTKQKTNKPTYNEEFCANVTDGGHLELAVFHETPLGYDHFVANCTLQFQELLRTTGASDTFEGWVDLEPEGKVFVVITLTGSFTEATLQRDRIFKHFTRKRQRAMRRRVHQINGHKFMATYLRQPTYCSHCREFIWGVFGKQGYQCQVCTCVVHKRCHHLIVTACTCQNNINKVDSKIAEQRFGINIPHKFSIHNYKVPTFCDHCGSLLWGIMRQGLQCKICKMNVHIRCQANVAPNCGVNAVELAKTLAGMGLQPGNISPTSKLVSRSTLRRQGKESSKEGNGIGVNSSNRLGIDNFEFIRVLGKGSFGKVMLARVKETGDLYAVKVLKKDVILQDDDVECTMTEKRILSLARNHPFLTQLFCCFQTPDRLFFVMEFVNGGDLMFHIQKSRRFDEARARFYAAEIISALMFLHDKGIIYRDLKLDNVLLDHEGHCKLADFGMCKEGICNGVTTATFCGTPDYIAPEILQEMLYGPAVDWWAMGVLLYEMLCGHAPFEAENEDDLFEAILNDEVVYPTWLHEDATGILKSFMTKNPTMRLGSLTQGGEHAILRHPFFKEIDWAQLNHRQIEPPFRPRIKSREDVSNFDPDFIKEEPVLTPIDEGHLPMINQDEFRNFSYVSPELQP
T4 sequence (O75914 whole entry): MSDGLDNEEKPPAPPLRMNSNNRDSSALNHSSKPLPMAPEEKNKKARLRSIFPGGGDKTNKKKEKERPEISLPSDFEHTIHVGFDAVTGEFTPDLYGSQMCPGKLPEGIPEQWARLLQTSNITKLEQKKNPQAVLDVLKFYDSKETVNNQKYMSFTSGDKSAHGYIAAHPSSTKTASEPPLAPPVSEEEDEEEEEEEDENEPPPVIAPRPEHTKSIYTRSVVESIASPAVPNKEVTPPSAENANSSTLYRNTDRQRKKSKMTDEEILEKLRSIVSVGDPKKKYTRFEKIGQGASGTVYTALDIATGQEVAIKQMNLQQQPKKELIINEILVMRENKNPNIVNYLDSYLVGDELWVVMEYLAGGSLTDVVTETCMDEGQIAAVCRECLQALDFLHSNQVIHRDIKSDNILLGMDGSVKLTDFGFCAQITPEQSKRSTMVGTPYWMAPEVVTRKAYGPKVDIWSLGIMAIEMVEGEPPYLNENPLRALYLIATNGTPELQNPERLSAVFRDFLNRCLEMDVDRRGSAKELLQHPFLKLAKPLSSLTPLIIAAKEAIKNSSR
T3 sequence (P28482 whole entry): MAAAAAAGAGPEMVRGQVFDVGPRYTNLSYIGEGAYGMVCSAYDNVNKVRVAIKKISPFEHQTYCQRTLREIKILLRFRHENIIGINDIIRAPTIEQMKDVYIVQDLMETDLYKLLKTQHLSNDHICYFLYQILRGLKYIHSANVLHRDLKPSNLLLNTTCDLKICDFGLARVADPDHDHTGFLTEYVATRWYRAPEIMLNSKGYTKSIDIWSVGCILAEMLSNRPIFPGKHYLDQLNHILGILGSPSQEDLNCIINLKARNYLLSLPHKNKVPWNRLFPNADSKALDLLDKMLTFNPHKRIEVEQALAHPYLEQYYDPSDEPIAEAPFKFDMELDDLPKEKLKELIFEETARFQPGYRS

Consider `CCOc1cc(C(=O)N2CCC(N3CCN(C)CC3)CC2)ccc1Nc1ncc2c(n1)N(C1CCCC1)c1ccccc1C(=O)N2C` [Compound 26], for which, on panel of 442 kinases [1], the “KINOMEscan: ABL1(Y253F)-phosphorylated” value is reported as 100. Also, on panel of 442 kinases [2], the “KINOMEscan: PRKCH” value was determined as 100. The “KINOMEscan: ERK2” value on panel of 442 kinases [3] was determined as 100. At panel of 442 kinases [4], the “KINOMEscan: PAK3” value was found to be 95.
As for `COc1cc(C(=O)N2CCC(N3CCN(C)CC3)CC2)ccc1Nc1ncc2c(n1)N1CCc3cccc(c31)C(=O)N2C` [Compound 24], the “KINOMEscan: PRKCH” value at panel of 442 kinases [2] is listed as 84. The “KINOMEscan: ERK2” value on panel of 442 kinases [3] is on record as 88. In addition, the “KINOMEscan: PAK3” value at panel of 442 kinases [4] was 80.
For `COc1cc(C(=O)N2CCC(N3CCN(C)CC3)CC2)ccc1Nc1ncc2c(n1)N(C)c1ccccc1C(=O)N2C` [15 (LRRK2-IN-1)], on panel of 442 kinases [1], the “KINOMEscan: ABL1(Y253F)-phosphorylated” value was determined as 89. Besides, the “KINOMEscan: PRKCH” value on panel of 442 kinases [2] is on record as 100. The “KINOMEscan: ERK2” value at panel of 442 kinases [3] was 85. Also, the “KINOMEscan: PAK3” value on panel of 442 kinases [4] is given as 83.
Consider `COc1cc(C(=O)N2CCC(N3CCN(C)CC3)CC2)ccc1Nc1ncc2c(n1)N(C1CCCC1)c1ccccc1C(=O)N2C` [Compound 25, 11-cyclopentyl-2-((2-methoxy-4-(4-(4-methylpiperazin-1-yl)piperidine-1-carbonyl)phenyl)amino)-5-methyl-5H-benzo[e]pyrimido[5,4-b][1,4]diazepin-6(11H)-one], for which the “KINOMEscan: ABL1(Y253F)-phosphorylated” value on panel of 442 kinases [1] is given as 60. In addition, the “KINOMEscan: PRKCH” value at panel of 442 kinases [2] came out at 100. On panel of 442 kinases [3], the “KINOMEscan: ERK2” value is given as 98. Further, the “KINOMEscan: PAK3” value on panel of 442 kinases [4] came to 69.
